Consider one compound from paper PMC7828518 (2021).

In assay [1] the test system is F21T (DNA, G4) GGGTTAGGGTTAGGGTTAGGG
The experiment in a line: FRET DNA melting. The settings on record: K+ (10 mM KCl), Li+ (90 mM LiCl); 10 mM lithium cacodylate pH 7.3; 5 μM compound, 0.2 μM DNA.

The subject of assay [2] is Tel22 (DNA, G4) AGGGTTAGGGTTAGGGTTAGGG
Description: circular dichroism titration. The settings on record: K+ (10 mM KCl), Li+ (90 mM LiCl); 10 mM lithium cacodylate pH 7.3, 25 °C; 4 μM DNA, ratios 1:1 to 1:5.

Assay [3] concerns F10T (DNA, hairpin, Sp18 linker joins 3' end of first TATAGCTATA to 5' end of second (one molecule)) TATAGCTATA/TATAGCTATA
The experiment in a line: FRET DNA melting. The settings on record: Li+ (100 mM LiCl) per methods; Figure 3 legend: 10 mM KCl, 90 mM LiCl; 10 mM lithium cacodylate pH 7.3; up to 10 μM compound, 0.2 μM DNA.

For assay [4], the system named is ds17 (DNA, duplex) GGGTTACTACGAACTGG/CCAGTTCGTAGTAACCC
The experiment in a line: equilibrium dialysis (noncompetition). The settings on record: K+ (100 mM KCl, 10 mM potassium phosphate), pH 7.2, 22 °C, apparent, per base pair (75 μM monomeric units), 2 μM compound.

Assay [5] relates to Tel22 (DNA, G4) AGGGTTAGGGTTAGGGTTAGGG
The experiment in a line: equilibrium dialysis (noncompetition). The conditions noted are these: K+ (100 mM KCl, 10 mM potassium phosphate); pH 7.2, 22 °C; apparent; per tetrad (75 μM monomeric units); 2 μM compound; per base.

Molecules are shown by their SMILES.

Turning to `N=C(N)N/N=C/c1ccc2ccc3ccc(/C=N/NC(=N)N)nc3c2n1`, the “∆Tm” value in assay [1] was 7 ± 1 °C; in assay [3], ~ 0 °C. In addition, the binding entry in assay [2] is listed as “yes”. The Kapp is 0.029 ± 0.004 × 10^6 M^-1 in assay [4] and 2.3 ± 0.5 × 10^6 M^-1 in assay [5].
